Assay [1] has as its system mice. The assay can be described thus: Tail-flicking test. As to conditions: mouse, in vivo, ip. Here is the method: Mice with pain threshold of 4–6 s were selected for the tail-flicking test. […] A photothermal pain detector (YLS-12A, Jinan, Shandong, China) was used to measure the pain threshold of mice subjected to intense heat and the light beam of the detector was focused on the middle of mouse tail. All of the animals were intraperitoneally injected with saline containing different concentrations of samples and control group received the same volume of saline. Tail withdrawal latency was measured as the time taken to withdraw the tail from the light beam.
(§1) The results are expressed as the mean ± standard error of the mean (SEM). Statistical significance was calculated using one- or two-way analysis of variance followed by the Student-Newman-Keuls and Bonferroni’s post hoc tests. Significance was defined as p < 0.05.

In assay [2] the test system is mice. The assay can be described thus: Formalin-induced paw licking. To be noted: mouse, in vivo, ip. The protocol: A formalin test was performed according to the method described by Owoyele et al.. Mice were intraperitoneally (i.p.) injected with test samples dissolved in 100 μL of saline and positive control animals were intraperitoneally injected with morphine dissolved in saline. The control group received the same volume of saline. Animals were injected with 20 μL of 5% formalin at the plantar surface of right hind paw after intraperitoneally injected with test samples. They were then placed into open polyvinyl cages (20 cm × 40 cm × 15 cm) individually. The time spent for licking the injected paw by each mouse was recorded by a digital video camera (early phase or neurogenic pain, 0–15 min post-injection and late phase or inflammatory pain, 15–30 min post-injection).
as §1

For assay [3], the system named is mice. In words: Hot plate test. As to conditions: mouse, in vivo. The protocol:
A hot plate apparatus (model HZ66-ZH-YLS-6B, Shanghai, China), maintained at 55 ± 1 °C, was used to test the pain in response to a thermal stimulus. Mice in the control condition showing initial nociceptive responses between 5 and 10 s were selected for the experiment. The latency to the sign of hind paw licking or jumping to avoid heat nociception was taken as the index of the nociceptive threshold. […] A group of mice treated with morphine dissolved in physiological saline was used as a positive control.
as §1
(Hot-plate and tail-flick tests time the reaction to a heat stimulus.)

Values joined by “and” are separate entries in the source; they are usually repeats but may differ in a detail not shown here. Equal values may be shown once.

With `CN1CC[C@]23c4c5ccc(O)c4O[C@H]2[C@@H](O)C=C[C@H]3[C@H]1C5` [morphine], the tail withdrawal latency in assay [1] is 6.8 s and 8.9 s and 11.3 s. In addition, in assay [2], the “paw licking time, early phase” value is 94 s and 71 s and 60 s; the “paw licking time, late phase” value is 421 s and 275 s and 211 s. Also, the hot plate latency in assay [3] was 12.5 s and 14.3 s and 18.6 s.

(Values after article PMC5308240, “A Novel Toxin from Haplopelma lividum Selectively Inhibits the NaV1.8 Channel and Possesses Potent Analgesic Efficacy” (Toxins, 2016).)
